Laboratory results published in ChEMBL document CHEMBL1151281, “Botcinins A, B, C, and D, metabolites produced by Botrytis cinerea, and their antifungal activity against Magnaporthe grisea, a pathogen of rice blast disease” (2005).
In brackets after ≈: the same amount, converted by molar mass. Activity calls are given as the source filed them. The rule behind the calls is not given here.

tested on: Pyricularia grisea; experiment: Antifungal activity against Magnaporthe grisea IFO 30733 at 800 uM after 3 days; assay type: functional, organism-based; conditions: not given

Row | SMILES | Activity
1 | CC(=O)O[C@H]1[C@@H](C)C(=O)O[C@H]2[C@H](C)[C@@H](O)[C@H](C)O[C@@]21C | inactive

tested on: Pyricularia grisea; experiment: Antifungal activity against Magnaporthe grisea IFO 30733 after 3 days; assay type: functional; conditions: IFO 30733, 72 h

Row | SMILES | MIC [µM]
2 | CCCC[C@H](O)CCC(=O)O[C@@H]1[C@@H](C)[C@@H]2OC(=O)[C@H](C)[C@H](OC(C)=O)[C@@]2(C)O[C@H]1C | 100 (≈ 42.9 µg/mL)
3 | CCCC[C@H](O)/C=C/C(=O)O[C@@H]1[C@@H](C)[C@@H]2OC(=O)[C@H](C)[C@H](OC(C)=O)[C@@]2(C)O[C@H]1C [BOTCININ A] | 100 (≈ 42.7 µg/mL)
4 | CCCCCC[C@H](O)/C=C/C(=O)O[C@@H]1[C@@H](C)[C@@H]2OC(=O)[C@H](C)[C@H](OC(C)=O)[C@@]2(C)O[C@H]1C [BOTCININ B] | 12.5 (≈ 5.68 µg/mL)
5 | CCCCCC[C@H](O)/C=C/C(=O)O[C@@H]1[C@@H](C)[C@@H]2OC(=O)[C@@H](C)[C@H](OC(C)=O)[C@@]2(C)O[C@H]1C [BOTCININ C] | 100 (≈ 45.5 µg/mL)
6 | CCCC[C@H](O)/C=C/C(=O)O[C@@H]1[C@@H](C)[C@@H]2OC(=O)C(C)=C[C@@]2(C)O[C@H]1C [BOTCININ D] | 12.5 (≈ 4.58 µg/mL)
